The text below walks through data of publication PMC7006784, “The combination of salvianolic acid A with latamoxef completely protects mice against lethal pneumonia caused by methicillin-resistant Staphylococcus aureus” (Emerging Microbes & Infections, 2020).

The test system of assay [1] is S. aureus USA300. In words: Pneumonia model, bacterial load and histopathology of the lungs. The class given is in vivo, C57BL/6J mice. The following applies: mice, 1 × 10^9 CFU i.n., 24 h. As for the experimental part: (§1) The animal experiments were performed using 6- to 8-week-old female C57BL/6J mice obtained from the Experimental Animal Center of Jilin University and conducted according to the guidelines of the Animal Care and Use Committee of Jilin University. The mouse S. aureus pneumonia model was generated as described previously. Briefly, the mice were anaesthetized with ether and inoculated with 30 μl bacterial resuspension via the left nare. The mice were then held upright to allow the bacteria to be inhaled into the lungs. For the survival assessment, groups of 10 mice were challenged with 2 × 10^9 CFU S. aureus. One hour after intranasal inoculation, the mice were subcutaneously injected with 100 mg/kg of Sal A, 75 mg/kg of latamoxef or 100 mg/kg of Sal A plus 75 mg/kg of latamoxef at 12 h intervals, and survival was assessed for 96 h. For the bacterial load, histopathological, and bronchoalveolar lavage fluid (BALF) experiments, mice were inoculated with 1 × 10^9 CFU S. aureus. The mice were then given a subcutaneous injection of 100 mg/kg Sal A, 75 mg/kg latamoxef or a combination of 100 mg/kg Sal A and 75 mg/kg every 12 h. After 24 h, the left lung of each anaesthetized mouse was aseptically excised and homogenized, and the CFU was determined by serial dilutions. The right lungs from each group of mice were excised for histopathological analysis, and the samples were fixed in 10% formalin and stained with haematoxylin and eosin (H&E).

For assay [2], the system named is S. aureus USA300. In words: Pneumonia model, survival. Conditions: mice, 2 × 10^9 CFU i.n.; s.c. 100 mg/kg Sal A and/or 75 mg/kg latamoxef every 12 h, 96 h; PBS control 10%. The assay is classed as in vivo, C57BL/6J mice. The protocol:
as §1, with “The right lungs from each group of mice were excised for histopathological analysis, and the samples were fixed in 10% formalin and stained with haematoxylin and eosin (H&E).” left out

`CO[C@@]1(NC(=O)C(C(=O)O)c2ccc(O)cc2)C(=O)N2C(C(=O)O)=C(CSc3nnnn3C)CO[C@@H]21` (stereo partly drawn) [latamoxef]: the “viable MRSA loads in the lungs in comparison with the control” value in the assay with S. aureus USA300 [1] (s.c. 100 mg/kg Sal A and/or 75 mg/kg latamoxef every 12 h) is “significantly decreased”. Besides, the “pulmonary inflammation (histopathology of the lungs)” value in the assay with S. aureus USA300 [1] (s.c. 100 mg/kg Sal A and/or 75 mg/kg latamoxef, H&E) was “alleviated”. In addition, in the assay on S. aureus USA300 [2], the survival rate is 50%.
